According to patent US20240254119A1 (THIRD HARMONIC BIO, INC., priority 2022, published 2024):
pIC50: −log10 of the molar value.

molecular target: T1, wtKIT (Homo sapiens, UniProt P10721); assay: HTRF biochemical assay, wtKIT (phosphorylation of a peptide substrate); settings: Table 4
T1 construct: 1888289AM in the reaction mixtures
Outline: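 HTRF read-out of FAM-peptide (1 µM) phosphorylation after anti-phosphotyrosine antibody addition and EDTA quench. Reaction: 5.0 nM wtKIT, 400 µM ATP, 10 mM Mn2+, HEPES pH 7.5, 1% DMSO, 3 h, 25 °C; optional enzyme-compound preincubation; enzyme level set for 10-20% conversion.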

T1 sequence (P10721 26-976): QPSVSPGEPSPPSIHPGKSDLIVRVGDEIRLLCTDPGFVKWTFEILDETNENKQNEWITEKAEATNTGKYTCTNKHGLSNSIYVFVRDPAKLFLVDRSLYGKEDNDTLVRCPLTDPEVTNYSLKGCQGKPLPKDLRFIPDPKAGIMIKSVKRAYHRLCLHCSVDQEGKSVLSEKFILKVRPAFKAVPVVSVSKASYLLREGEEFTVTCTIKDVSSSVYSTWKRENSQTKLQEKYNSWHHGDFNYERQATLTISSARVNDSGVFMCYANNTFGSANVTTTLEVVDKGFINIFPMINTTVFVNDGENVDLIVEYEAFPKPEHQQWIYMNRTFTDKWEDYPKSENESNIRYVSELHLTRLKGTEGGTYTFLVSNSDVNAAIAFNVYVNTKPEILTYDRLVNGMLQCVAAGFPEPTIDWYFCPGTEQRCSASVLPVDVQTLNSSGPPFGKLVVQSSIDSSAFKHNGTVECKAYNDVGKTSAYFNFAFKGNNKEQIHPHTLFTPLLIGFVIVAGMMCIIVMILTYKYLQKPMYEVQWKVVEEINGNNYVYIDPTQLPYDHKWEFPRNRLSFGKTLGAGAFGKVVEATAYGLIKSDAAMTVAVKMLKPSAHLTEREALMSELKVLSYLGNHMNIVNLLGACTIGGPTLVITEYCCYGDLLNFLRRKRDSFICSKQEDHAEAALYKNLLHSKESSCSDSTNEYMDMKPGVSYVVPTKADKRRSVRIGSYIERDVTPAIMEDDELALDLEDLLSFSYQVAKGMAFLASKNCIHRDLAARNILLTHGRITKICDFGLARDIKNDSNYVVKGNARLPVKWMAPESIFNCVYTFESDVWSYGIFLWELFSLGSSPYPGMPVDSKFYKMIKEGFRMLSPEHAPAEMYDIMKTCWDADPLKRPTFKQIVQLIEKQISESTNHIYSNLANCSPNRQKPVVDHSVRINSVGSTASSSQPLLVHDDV

pIC50 | SMILES
≥ 7.30 | Cc1ccc(-c2ncon2)cc1NC(=O)c1cnc2cc(-c3ccn(C)n3)ccn12 [Compound I-684]
5.30 to 6.30 | Cc1ccc(-c2noc(C(C)O)n2)cc1NC(=O)c1cnc2cc(F)ccn12 (centres unmarked) [Compound I-741]
≥ 7.30 | CC[C@@H](O)Cc1nc(-c2ccc(C)c(NC(=O)c3cnc4cc(Cl)ccn34)c2)no1 [Compound I-616, 7-chloro-N-[5-[5-[(2R)-2-hydroxybutyl]-1,2,4-oxadiazol-3-yl]-2-methyl-phenyl]imidazo[1,2-a]pyridine-3-carboxamide]
≥ 7.30 | Cc1ccc(-c2noc([C@H]3C[C@@H]3F)n2)cc1NC(=O)c1cnc2cc(COCC(C)O)ccn12 (single isomer, unassigned) [Compound I-469, N-[5-[5-[(1R,2S)-2-fluorocyclopropyl]-1,2,4-oxadiazol-3-yl]-2-methyl-phenyl]-7-[[(2S*)-2-hydroxypropoxy]methyl]imidazo[1,2-a]pyridine-3-carboxamide]
≥ 7.30 | CCc1nc(-c2ccc(C)c(NC(=O)c3cnc4cc(-c5csc(CO)n5)ccn34)c2)no1 [Compound I-672]
≥ 7.30 | Cc1ccn2c(C(=O)Nc3cc(-c4noc(-c5nc(C)oc5C)n4)ccc3C)cnc2c1 [Compound I-551]
≥ 7.30 | Cc1ccc(-c2noc(C[C@H](O)C(F)F)n2)cc1NC(=O)c1cnc2cc(OCCCC(C)(C)O)ccn12 [Compound I-580, (S)—N-(5-(5-(3,3-difluoro-2-hydroxypropyl)-1,2,4-oxadiazol-3-yl)-2-methylphenyl)-7-((4-hydroxy-4-methylpentyl)oxy)imidazo[1,2-a]pyridine-3-carboxamide]
6.30 to 7.30 | Cc1ccc(-c2noc(C3CC(O)(C(F)F)C3)n2)cc1NC(=O)c1cnc2ccccn12 (centres unmarked) [Compound I-538]
6.30 to 7.30 | Cc1nc(-c2ccc(C)c(NC(=O)c3cnn4cc(C(F)F)ccc34)c2)no1 [Compound I-569]

SMILES | pIC50
Cc1ccc(-c2noc(C[C@H](O)C(F)F)n2)cc1NC(=O)c1cnc2cc(OCCCCO)ccn12 [Compound I-568, (S)—N-(5-(5-(3,3-difluoro-2-hydroxypropyl)-1,2,4-oxadiazol-3-yl)-2-methylphenyl)-7-(4-hydroxybutoxy)imidazo[1,2-a]pyridine-3-carboxamide] | ≥ 7.30
Cc1ccc(-c2noc([C@H]3C[C@@H]3F)n2)cc1NC(=O)c1cnn2cc(F)ccc12 [Compound I-486, 6-fluoro-N-(5-(5-((1R,2S)-2-fluorocyclopropyl)-1,2,4-oxadiazol-3-yl)-2-methylphenyl)pyrazolo[1,5-a]pyridine-3-carboxamide] | ≥ 7.30

tested on: not listed separately; assay: Kinetic solubility assay; type: physicochemical; settings: kinetic solubility, 50 mM PB (pH 7.4), shaken 24 hours at RT
Method: 10 μL of 10 mM in DMSO of test article and control compounds was added into lower chambers of whatman miniuniprep vials, respectively. 490 μL of 50 mM PB (pH 7.4) was then added into lower chambers of the whatman miniuniprep vials, respectively. […] Miniuniprep vials were shaken for 24 hours at RT at the speed of 800 rpm, centrifuged 20 minutes (eg. 4000 rpm) and the filtrates were analyzed by UPLC-UV/HPLC-UV system to calculate the concentration with standard curve.
Filter Membrane: Miniuniprep (PTFE Filter Media with Polypropylene Housing) Cat. No. UN203NPUORG, GE Halthcare Whatman.

SMILES | Solubility (μM)
Cc1ccc(-c2noc(C3CC3F)n2)cc1NC(=O)c1cnc2cc(COC(C)(C)CO)ccn12 (centres unmarked) [I-64] | ** (a solubility greater than 10 μM and less than or equal to 50 μM)
COc1cc2ncc(C(=O)Nc3cc(-c4noc([C@H]5C[C@@H]5F)n4)ccc3C)n2cc1C(F)F [I-29] | **** (a solubility less than or equal to 2 μM)
Cc1ccc(-c2noc(C3COC3)n2)cc1NC(=O)c1cnc2cc(OC(F)(F)F)ccn12 [I-24] | **** (a solubility less than or equal to 2 μM)
Cc1ccc(-c2noc(C3COC3)n2)cc1NC(=O)c1cnc2cc(CC(F)(F)F)ccn12 [I-36] | **** (a solubility less than or equal to 2 μM)
Cc1ccc(-c2noc(CC(O)C(F)(F)F)n2)cc1NC(=O)c1cnc2ccccn12 (single isomer, unassigned) [I-68] | **** (a solubility less than or equal to 2 μM)
Cc1ccc(-c2noc(CC(O)C(F)F)n2)cc1NC(=O)c1cnc2cc(OC(F)(F)F)ccn12 (single isomer, unassigned) [I-13] | **** (a solubility less than or equal to 2 μM)
O=C(Nc1cccc(-c2noc(C3CC3F)n2)c1F)c1cnc2cc(COCCO)ccn12 (centres unmarked) [I-57] | **** (a solubility less than or equal to 2 μM)
COc1ccn2c(C(=O)Nc3cc(-c4noc(C5COC5)n4)ccc3Cl)cnc2c1 [I-47] | **** (a solubility less than or equal to 2 μM)
Cc1ccc(-c2noc([C@H]3C[C@@H]3F)n2)cc1NC(=O)c1cnc2cc(N3CCCC3=O)ccn12 [I-14] | **** (a solubility less than or equal to 2 μM)
Cc1ccc(-c2noc([C@H]3C[C@@H]3F)n2)cc1NC(=O)c1cnc2ccc(N3CCCC3=O)cn12 [I-4] | **** (a solubility less than or equal to 2 μM)
COc1cc2ncc(C(=O)Nc3cc(-c4noc([C@H]5C[C@@H]5F)n4)ccc3C)n2cc1C(F)(F)F [I-41] | **** (a solubility less than or equal to 2 μM)
Cc1ccc(-c2noc(C3COC3)n2)cc1NC(=O)c1cnc2cc(C(F)F)ccn12 [I-52] | **** (a solubility less than or equal to 2 μM)
Cc1ccc(-c2noc([C@H]3C[C@@H]3F)n2)cc1NC(=O)c1cnn2cc(OC(F)(F)F)ccc12 [I-19] | **** (a solubility less than or equal to 2 μM)
Cc1ccc(-c2noc(C3COC3)n2)cc1NC(=O)c1cnc2cc(COCCO)ccn12 [I-50] | *** (a solubility greater than 2 μM and less than or equal to 10 μM)
Cc1ccc(-c2noc(CC(O)C(F)F)n2)cc1NC(=O)c1cnc2cc(C(F)F)ccn12 (single isomer, unassigned) [I-70] | **** (a solubility less than or equal to 2 μM)
COc1ccn2c(C(=O)Nc3cc(-c4nc(C)no4)ccc3Cl)cnc2c1 [I-37] | **** (a solubility less than or equal to 2 μM)
Cc1ccc(-c2noc([C@H]3C[C@@H]3F)n2)cc1NC(=O)c1cnc2cc(CC#N)ccn12 [I-16] | **** (a solubility less than or equal to 2 μM)
Cc1ccc(-c2noc(C3COC3)n2)cc1NC(=O)c1cnc2cc(CF)ccn12 [I-48] | **** (a solubility less than or equal to 2 μM)
O=C(Nc1cc(-c2noc(C3COC3)n2)ccc1Cl)c1cnc2cc(C(F)F)ccn12 [I-38] | **** (a solubility less than or equal to 2 μM)
COc1cc2ncc(C(=O)Nc3cc(-c4noc([C@H]5C[C@@H]5F)n4)ccc3C)n2cc1C [I-42] | **** (a solubility less than or equal to 2 μM)

SMILES | Solubility (μM)
O=C(Nc1cc(-c2noc(CC(O)C(F)F)n2)ccc1Cl)c1cnc2ccccn12 (single isomer, unassigned) [I-61] | **** (a solubility less than or equal to 2 μM)
Cc1ccc(-c2noc([C@H]3C[C@@H]3F)n2)cc1NC(=O)c1cnc2ccc(S(C)(=O)=O)cn12 [I-18] | **** (a solubility less than or equal to 2 μM)
Cc1ccc(-c2noc([C@H]3C[C@@H]3F)n2)cc1NC(=O)c1cnc2ccc(CNS(=O)(=O)C3CC3)cn12 [I-5] | **** (a solubility less than or equal to 2 μM)
O=C(Nc1cc(-c2noc(CC(O)C(F)F)n2)ccc1Cl)c1cnc2ccccn12 (single isomer, unassigned) [I-62] | **** (a solubility less than or equal to 2 μM)
O=C(Nc1cc(-c2noc(C3CC3(F)F)n2)ccc1Cl)c1cnc2ccccn12 (centres unmarked) [I-74] | **** (a solubility less than or equal to 2 μM)
Cc1ccc(-c2noc(C3CC3F)n2)cc1NC(=O)c1cnc2cc(CNC(=O)C3CCCO3)ccn12 (mixture of isomers) [I-33] | *** (a solubility greater than 2 μM and less than or equal to 10 μM)
Cc1ccc(-c2noc([C@H]3C[C@@H]3F)n2)cc1NC(=O)c1cnc2cc(CNS(C)(=O)=O)ccn12 [I-17] | **** (a solubility less than or equal to 2 μM)
COc1ccn2c(C(=O)Nc3cccc(-c4noc([C@H]5C[C@@H]5F)n4)c3F)cnc2c1 [I-53] | **** (a solubility less than or equal to 2 μM)
COc1ccc2c(C(=O)Nc3cc(-c4noc([C@H]5C[C@@H]5F)n4)ccc3C)cnn2c1 [I-21] | **** (a solubility less than or equal to 2 μM)
COc1ccc2ncc(C(=O)Nc3cc(-c4noc(CC(O)C(F)F)n4)ccc3C)n2c1 (single isomer, unassigned) [I-65] | **** (a solubility less than or equal to 2 μM)
Cc1ccc(-c2noc(C3COC3)n2)cc1NC(=O)c1cnc2cc(C(C)(F)F)ccn12 [I-43] | **** (a solubility less than or equal to 2 μM)
Cc1ccc(-c2noc(C3CC3F)n2)cc1NC(=O)c1cnc2cc(COC(C)CO)ccn12 (centres unmarked) [I-59] | * (a solubility greater than 50 μM)
Cc1cn2c(C(=O)Nc3cc(-c4noc([C@H]5C[C@@H]5F)n4)ccc3C)cnc2cc1C#N [I-26] | **** (a solubility less than or equal to 2 μM)
O=C(Nc1cc(-c2noc(C3CC3F)n2)ccc1Cl)c1cnc2cc(COCCO)ccn12 (centres unmarked) [I-56] | **** (a solubility less than or equal to 2 μM)
Cc1ccc(-c2noc([C@H]3C[C@@H]3F)n2)cc1NC(=O)c1cnc2cc(CNC(=O)CO)ccn12 [I-7] | **** (a solubility less than or equal to 2 μM)
Cc1ccc(-c2noc([C@H]3C[C@@H]3F)n2)cc1NC(=O)c1cnc2ccc(CNC(=O)CO)cn12 [I-8] | **** (a solubility less than or equal to 2 μM)
Cc1ccc(-c2noc(C3COC3)n2)cc1NC(=O)c1cnn2cc(C(F)F)ccc12 [I-20] | **** (a solubility less than or equal to 2 μM)
COc1cc2ncc(C(=O)Nc3cc(-c4noc([C@H]5C[C@@H]5F)n4)ccc3C)n2cc1F [I-27] | **** (a solubility less than or equal to 2 μM)
Cc1ccc(-c2noc([C@H]3CC4(CC4)CN3)n2)cc1NC(=O)c1cnc2ccccn12 [I-231] | ** (a solubility greater than 10 μM and less than or equal to 50 μM)
